# From US20210292417A1, “HISTAMINE DIHYDROCHLORIDE COMBINATIONS AND USES THEREOF” (Immune Pharmaceuticals LTD., priority 2016, published 2021)
# Experiments:
# [1] = test system: NK cells and CD8+ T cells co-cultured with CD14+ CMML cells; assay: CMML cell-induced lymphocyte cell death, overnight co-culture; type: cell-based, human; conditions: DPI 3 μM; for CMML-induced lymphocyte apoptosis / cell death: NK cells and CD8+ T cells, HDC 100 μM, catalase 200U/ml, PJ34 0.5 μM
# Method: (§1) Lymphocyte cell death. Isolated lymphocyte subsets were co-cultured overnight with primary leukemic monocytes from CMML patients with or without NOX2 inhibitors or other anti-oxidative compounds at 37° C. in 5% CO2. Lymphocyte cell death was assessed by flow cytometry after staining with a LIVE/DEAD® fixable dead cell stain (Life Technologies). In receptor expression assays, purified NK cells where co-cultured overnight with monocytes in the presence or absence of the PARP-1 inhibitor PJ34 ([…]). The following antibodies were used for receptor expression assessment: NKp46-PE (clone: 9E2) and DNAM-1-PE-Cy7 (clone: DX11) from Miltenyi Biotec. NKp80-APC (clone: 4A4.D10) and CD16-BV605 (clone: 3G8) from BD Pharmingen.
# Subsets of CD8+ T cells were stained and sorted on a 3-laser […] II flow cytometer (BD Biosciences). The following antibodies were used to distinguish the T cell populations: CD3-Pacific Blue (clone: S4.1) from Life technologies. CD8-APC-H7 (clone: SK1), CD45RA-APC (clone: HI100), CD45RO-PE (clone: UCHL1) and CCR7-PE-Cy7 (clone: G043H7) all from BD Pharmingen. CD8+ T cell subsets were further defined as follows: naive T cells (TN) as CD45RA CCR7+, T central memory cells (TCM) as CD45ROCCR7+, T effector memory cells (TEM) as CD45ROCCR7^− and T effector cells (TEff) as CD45RACCR7^−.
# [2] = test system: CD14+ CMML cells; assay: Extracellular ROS production by isoluminol-enhanced chemiluminescence; type: cell-based, human; conditions: FACS-sorted CD14+ CMML cells stimulated with fMLF; HDC 50 or 100 μM
# Method: ROS production. The extracellular ROS production of primary CMML cells was measured by isoluminol-enhanced chemiluminescence as described. In brief, 2×10^5 cells were added to 96-well plates in the presence of isoluminol (10 μg/ml) and horseradish peroxidase (HRP; 4U/ml) and stimulated by the NOX2 inducer N-formyl-methionyl-leucyl-phenylalanine (fMLF; 0.1 μM). Light emission was recorded using a FLUOstar Omega platereader (BMG Labtech).
# [3] = test system: CD14+ CMML cells; assay: NK cell degranulation against primary CMML cells; type: cell-based, human; conditions: IL-2-stimulated NK cells; lintuzumab 1 μg/ml; HDC 100 μM added to lintuzumab
# Method: Assays of NK cell degranulation and ADCC. NK cell degranulation and cytotoxicity against patient-derived, malignant monocytes were assessed in experiments using lintuzumab (Abbvie, Stockholm, Sweden), a humanized anti-CD33 antibody. NK cells from healthy donors were co-incubated with monocytes, labeled with CellTrace violet stain (Life Technologies), in the presence of anti-CD107a-PE-Cy7 antibody (BD Pharmingen) and anti-oxidative compounds for four hours at 37° C. and 5% CO2. Thereafter, the cells were stained with LIVE/DEAD® fixable dead cell stain (Life Technologies) and assessed for lysis of monocytes and NK cell degranulation by flow cytometry. For culture experiments, cytotoxicity assays and confocal microscopy, Iscoves' modified Dulbecco minimum essential medium (IDMEM) supplemented with 10% human AB+ serum was used.
# [4] = test system: EL-4 thymoma cell line; assay: EL-4 thymoma tumor growth in mice; type: in vivo, mouse; conditions: EL-4-bearing C57BL/6J mice; 1.5 mg histamine dihydrochloride i.p. three times per week; 240 μg each antibody i.p. days 3, 6 and 10
# Method: The EL-4 thymoma cell line (provided by Dr. Ingo Schmitz, Otto-von-Guericke-University, Magdeburg, Germany) was cultured in DMEM medium (Sigma, Stockholm, Sweden) supplemented with 10% fetal calf serum, 100 U/ml penicillin, 100 μg/ml streptomycin and 2 mM L-glutamine, as described in […]. et al. The Journal of Immunology, volume 194, no. 10, pp. 5014-5021. C57BL/6J mice (6-8 weeks old, purchased from Charles River Laboratories, Sulzfeld, Germany) were inoculated subcutaneously with 1.75-2×10^5 EL-4 tumor cells and treated with saline (control) or 1.5 mg histamine dihydrochloride (purchased from Sigma-Aldrich, Stockholm, Sweden) diluted in saline, by intraperitoneal injections three times per week starting one day before inoculation of cells. Two-hundred forty μg of an antibody against the programmed cell death-1 receptor (anti-mouse PD1, clone RMP1-14, referred to as a-PD1) and 240 μg of an antibody against the programmed death-ligand 1 (anti-mouse PD-L1, clone 10F.9G2, referred to as α-PDL1) (both purchased from BioXcell, West Lebanon, N.H., USA, catalogue numbers BE0146 and BE0101, respectively) were administrated by intraperitoneal injections three, six and ten days after tumor inoculation. Tumors were measured manually every 2-3 days. Tumor size was calculated as length× width.
# [5] = test system: NK cells; assay: NK cell receptor expression after exposure to PJ34; type: cell-based, human; conditions: PJ34 in the absence of ROS-producing cells
# Method: as §1
# [6] = target: H2R (Homo sapiens, UniProt P25021); conditions: thioether group replaced by an ether; cited from earlier work
# Sequence of H2R (P25021 whole entry, species assumed): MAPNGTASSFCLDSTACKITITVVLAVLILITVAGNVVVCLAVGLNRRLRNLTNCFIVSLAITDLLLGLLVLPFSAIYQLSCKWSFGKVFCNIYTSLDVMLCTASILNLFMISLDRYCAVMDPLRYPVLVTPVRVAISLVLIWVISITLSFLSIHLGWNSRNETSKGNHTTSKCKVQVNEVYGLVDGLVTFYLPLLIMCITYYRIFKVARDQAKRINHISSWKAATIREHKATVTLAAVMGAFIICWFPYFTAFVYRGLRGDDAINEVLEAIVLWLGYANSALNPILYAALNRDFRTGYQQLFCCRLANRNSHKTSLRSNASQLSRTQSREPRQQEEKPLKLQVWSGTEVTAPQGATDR
Compound,CMML-induced lymphocyte apoptosis / cell death [1],NK cell degranulation response [3],other results
"Cl.Cl.NCCc1c[nH]cn1 [HDC, histamine dihydrochloride]",prevented,further enhanced,ROS production [2]: significantly suppressed; tumor growth [4]: significantly reduced tumor growth rate
CN(C)CC(=O)Nc1ccc2[nH]c(=O)c3ccccc3c2c1 [PJ34],rescued,–,NK cell receptor expression [5]: No down-regulation
lintuzumab: a humanized anti-CD33 antibody,–,significantly augmented,–
CNC(=C[N+](=O)[O-])NCCOCc1ccc(CN(C)C)o1 [AH202399AA],–,–,reduction of affinity at H2R relative to ranitidine [6]: > 50 fold
catalase,prevented,–,–
"c1ccc2c(c1)[I+]c1ccccc1-2 [DPI, diphenylene iodonium chloride]",prevented,–,"CMML cell-induced apoptosis of sorted CD8+ T cell subsets (TN, TCM, TEM, Teff) ([1]; ratio 1:1, overnight): efficiently rescued all T cell subsets"
